From ChEMBL document CHEMBL1201862, “PubChem BioAssay data set” (2004)
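Protocol summary: plate cells (96-well), add compound at 5 concentrations, incubate 48 h, interpolate endpoints linearly. GI50 is the concentration that inhibits growth by half.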 Activity calls are given as the source filed them. No stated cut-off is given here; in the data, active = GI50 up to about 1.1 µM and inactive = higher.

Legend:
Experiment in all cases: inhibition of tumour cell growth, NCI panel, 48 h
RPMI-8226 = test system: RPMI-8226
XF498 = test system: XF498
NCI-H522 = test system: NCI-H522
CCRF-CEM = test system: CCRF-CEM
HOP-92 = test system: HOP-92
SN12C = test system: SN12C
NCI-H23 = test system: NCI-H23
A549 = test system: A549
HCT-116 = test system: HCT-116
NCI-H460 = test system: NCI-H460
SK-MEL-28 = test system: SK-MEL-28
HT-29 = test system: HT-29
COLO 205 = test system: COLO 205
ACHN = test system: ACHN
SNB-19 = test system: SNB-19
CAKI-1 = test system: CAKI-1
OVCAR-3 = test system: OVCAR-3
HL-60 = test system: HL-60
HCC 2998 = test system: HCC 2998
SK-OV-3 = test system: SK-OV-3
U-251 = test system: U-251
M14 = test system: M14
786-0 = test system: 786-0
EKVX = test system: EKVX
DMS-273 = test system: DMS-273
SF-295 = test system: SF-295
UACC-62 = test system: UACC-62
KM12 = test system: KM12
M19-MEL = test system: M19-MEL
SK-MEL-2 = test system: SK-MEL-2
OVCAR-8 = test system: OVCAR-8
KM-20L2 = test system: KM-20L2
OVCAR-4 = test system: OVCAR-4
Malme-3M = test system: Malme-3M
DMS-114 = test system: DMS-114
SF-539 = test system: SF-539
SW-620 = test system: SW-620
RXF 393 = test system: RXF 393
HOP-18 = test system: HOP-18
TK-10 = test system: TK-10
HCT-15 = test system: HCT-15
SNB-78 = test system: SNB-78
K562 = test system: K562
SK-MEL-5 = test system: SK-MEL-5
A498 = test system: A498
OVCAR-5 = test system: OVCAR-5
HOP-62 = test system: HOP-62
LXFL 529 = test system: LXFL 529
IGROV-1 = test system: IGROV-1
DLD-1 = test system: DLD-1
MOLT-4 = test system: MOLT-4
NCI-H226 = test system: NCI-H226
LOX IMVI = test system: LOX IMVI
SNB-75 = test system: SNB-75
UO-31 = test system: UO-31
UACC-257 = test system: UACC-257
SF-268 = test system: SF-268
SR = test system: SR

O=C1C(c2ccc(C3=[N+]([O-])c4cc([N+](=O)[O-])ccc4C3=O)cc2)=[N+]([O-])c2cc([N+](=O)[O-])ccc21
GI50 (RPMI-8226): > 10 µM (inactive) | GI50 (XF498): > 10 µM (inactive) | GI50 (NCI-H522): > 10 µM (inactive) | GI50 (CCRF-CEM): > 10 µM (inactive) | GI50 (HOP-92): > 10 µM (inactive) | GI50 (SN12C): > 10 µM (inactive) | GI50 (NCI-H23): > 10 µM (inactive) | GI50 (A549): > 10 µM (inactive) | GI50 (HCT-116): > 10 µM (inactive) | GI50 (NCI-H460): > 10 µM (inactive) | GI50 (SK-MEL-28): > 10 µM (inactive) | GI50 (HT-29): > 10 µM (inactive) | GI50 (COLO 205): > 10 µM (inactive) | GI50 (ACHN): > 10 µM (inactive) | GI50 (SNB-19): > 10 µM (inactive) | GI50 (CAKI-1): > 10 µM (inactive) | GI50 (OVCAR-3): > 10 µM (inactive) | GI50 (HL-60): > 10 µM (inactive) | GI50 (HCC 2998): > 10 µM (inactive) | GI50 (SK-OV-3): > 10 µM (inactive) | GI50 (U-251): > 10 µM (inactive) | GI50 (M14): > 10 µM (inactive) | GI50 (786-0): 58.9 µM (inactive) | GI50 (EKVX): > 10 µM (inactive) | GI50 (DMS-273): > 10 µM (inactive) | GI50 (SF-295): > 10 µM (inactive) | GI50 (UACC-62): > 10 µM (inactive) | GI50 (KM12): > 10 µM (inactive) | GI50 (M19-MEL): > 10 µM (inactive) | GI50 (SK-MEL-2): > 10 µM (inactive) | GI50 (OVCAR-8): > 10 µM (inactive) | GI50 (KM-20L2): > 10 µM (inactive) | GI50 (OVCAR-4): > 10 µM (inactive) | GI50 (Malme-3M): > 10 µM (inactive) | GI50 (DMS-114): > 10 µM (inactive) | GI50 (SF-539): > 10 µM (inactive) | GI50 (SW-620): > 10 µM (inactive) | GI50 (RXF 393): > 10 µM (inactive) | GI50 (HOP-18): > 100 µM (inactive) | GI50 (TK-10): > 10 µM (inactive) | GI50 (HCT-15): > 10 µM | GI50 (SNB-78): 8.91 µM (inactive) | GI50 (K562): > 10 µM (inactive) | GI50 (SK-MEL-5): > 10 µM (inactive) | GI50 (A498): > 10 µM (inactive) | GI50 (OVCAR-5): > 10 µM (inactive) | GI50 (HOP-62): 66.7 µM (inactive) | GI50 (LXFL 529): > 10 µM (inactive) | GI50 (IGROV-1): > 10 µM (inactive) | GI50 (DLD-1): > 10 µM (inactive) | GI50 (MOLT-4): > 10 µM (inactive) | GI50 (NCI-H226): > 10 µM (inactive) | GI50 (LOX IMVI): > 10 µM (inactive) | GI50 (SNB-75): 36.2 µM (inactive) | GI50 (UO-31): > 10 µM (inactive) | GI50 (UACC-257): > 10 µM (inactive)

Cc1ccc(N2C(=O)C3C=CC(n4[nH]c(=O)n(Cc5ccccc5)c4=O)CC3C2=O)cc1 (stereo not drawn)
GI50 (RPMI-8226): > 100 µM (inactive) | GI50 (XF498): > 100 µM (inactive) | GI50 (NCI-H522): > 100 µM (inactive) | GI50 (SF-268): > 100 µM (inactive) | GI50 (CCRF-CEM): > 100 µM (inactive) | GI50 (HOP-92): > 100 µM (inactive) | GI50 (SN12C): > 100 µM (inactive) | GI50 (NCI-H23): > 100 µM (inactive) | GI50 (A549): > 100 µM (inactive) | GI50 (HCT-116): > 100 µM (inactive) | GI50 (SR): > 100 µM (inactive) | GI50 (NCI-H460): > 100 µM (inactive) | GI50 (SK-MEL-28): > 100 µM (inactive) | GI50 (HT-29): > 100 µM (inactive) | GI50 (COLO 205): > 100 µM (inactive) | GI50 (ACHN): > 100 µM (inactive) | GI50 (SNB-19): > 100 µM (inactive) | GI50 (CAKI-1): > 100 µM (inactive) | GI50 (OVCAR-3): > 100 µM (inactive) | GI50 (HL-60): > 100 µM (inactive) | GI50 (HCC 2998): > 100 µM (inactive) | GI50 (SK-OV-3): > 100 µM (inactive) | GI50 (U-251): > 100 µM (inactive) | GI50 (M14): > 100 µM (inactive) | GI50 (786-0): > 100 µM (inactive) | GI50 (EKVX): > 100 µM (inactive) | GI50 (DMS-273): > 100 µM (inactive) | GI50 (SF-295): > 100 µM (inactive) | GI50 (UACC-62): > 100 µM (inactive) | GI50 (KM12): > 100 µM (inactive) | GI50 (M19-MEL): > 100 µM (inactive) | GI50 (SK-MEL-2): > 100 µM (inactive) | GI50 (OVCAR-8): > 100 µM (inactive) | GI50 (KM-20L2): > 100 µM (inactive) | GI50 (Malme-3M): > 100 µM (inactive) | GI50 (DMS-114): > 100 µM (inactive) | GI50 (SF-539): > 100 µM (inactive) | GI50 (SW-620): > 100 µM (inactive) | GI50 (RXF 393): > 100 µM (inactive) | GI50 (HOP-18): > 100 µM (inactive) | GI50 (TK-10): > 100 µM (inactive) | GI50 (HCT-15): > 100 µM | GI50 (SNB-78): > 100 µM (inactive) | GI50 (K562): > 100 µM (inactive) | GI50 (SK-MEL-5): > 100 µM (inactive) | GI50 (A498): > 100 µM (inactive) | GI50 (OVCAR-5): > 100 µM (inactive) | GI50 (HOP-62): > 100 µM (inactive) | GI50 (LXFL 529): > 100 µM (inactive) | GI50 (IGROV-1): > 100 µM (inactive) | GI50 (DLD-1): > 100 µM (inactive) | GI50 (MOLT-4): > 100 µM (inactive) | GI50 (NCI-H226): > 100 µM (inactive) | GI50 (LOX IMVI): > 100 µM (inactive) | GI50 (SNB-75): 74.6 µM (inactive) | GI50 (UO-31): > 100 µM (inactive) | GI50 (UACC-257): > 100 µM (inactive)
